What all share (experiment): NCI tumour cell line growth inhibition, 48 h
Assay [1] has as its system OVCAR-4 ovarian.
In assay [2] the test system is HOP-62 NSCLC.
Assay [3] concerns MOLT-4 leukemia.
Assay [4] has as its system RPMI-8226 leukemia.
The subject of assay [5] is SK-MEL-5 melanoma.
Assay [6] relates to 786-0 renal.
The test system of assay [7] is T-47D breast.
For assay [8], the system named is BT-549 breast.
In assay [9] the test system is MDA-MB-231 breast.
Assay [10] concerns UACC-257 melanoma.
Assay [11] deals with SNB-19 CNS.
Assay [12] concerns SN12C renal.
The subject of assay [13] is SK-OV-3 ovarian.
Assay [14] has as its system UACC-62 melanoma.
Assay [15] has as its system HCT-15 colon.
For assay [16], the system named is M14 melanoma.
Assay [17] has as its system HOP-92 NSCLC.
For assay [18], the system named is UO-31 renal.
Assay [19] relates to SK-MEL-2 melanoma.

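Dose response: 5 concentrations. Exposure: 48 h. Format: 96-well plates. Endpoint: linear interpolation; highest concentration if not reached. Definition used: TGI = concentration required for complete inhibition of growth.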 A value given as a limit tells only on which side of the number the result lay.

As to `COC(=O)c1c(C)c2c(c(C)c1O)OC(=O)c1c(C)cc(O)c(C=O)c1O2`, the TGI in assay [1], in assay [2], in [3], in assay [4], in [5] and in [6] was greater than 100 µM throughout. Moreover, the TGI in [7], in [8], in assay [9], in [10], in [11] and in [12] was greater than 100 µM in each case. Also, the TGI in [13], in [14], in assay [15], in [16] and in assay [17] was greater than 100 µM each time.

`CC(C)CC1C(=O)OC(C)(C)OC1=O`: the TGI in assay [1], in assay [18], in [2], in [3], in assay [4] and in assay [19] was greater than 100 µM throughout. The TGI in assay [5], in [6], in [7], in assay [8], in assay [9] and in assay [10] was greater than 100 µM throughout. The TGI in [11], in assay [12], in assay [13], in assay [14], in [15] and in assay [16] was greater than 100 µM in each case.

Consider `c1ccc2c(c1)n1c(N3CCCC3)[n+]3ccccc3c1c1c3cccc[n+]3c(N3CCCC3)n21`, for which the TGI in assay [1] is greater than 100 µM; in assay [3], greater than 100 µM; in [4] it was greater than 100 µM; in [19] it was greater than 100 µM; in assay [5] it was 65.8 µM; in assay [6] it was greater than 100 µM. The TGI in [7], in [8], in assay [9], in assay [10], in assay [11] and in assay [12] was greater than 100 µM each time. In addition, the TGI in assay [14], in assay [15], in [16] and in assay [17] was greater than 100 µM each time.

In the case of `CC1(C)C2CCC1(C)C(NC(=O)COCCOCC(N)=O)C2` (configuration not stated), the TGI in assay [1], in assay [18], in assay [2], in [3], in assay [5] and in assay [6] was greater than 100 µM in each case. Moreover, the TGI in assay [7], in [8], in [9], in assay [10], in assay [11] and in assay [12] was greater than 100 µM throughout. For the same compound, the TGI in [13], in assay [14], in assay [16] and in [17] was greater than 100 µM throughout.

For the compound `CCCCCCCCCCCC(=O)OCC(O)CO` (configuration not stated), the TGI in [1], in [18], in assay [2], in assay [3], in assay [19] and in [5] was greater than 100 µM in each case. Also, the TGI in assay [6], in assay [7], in assay [8], in assay [9], in [10] and in assay [11] was greater than 100 µM each time. The TGI in assay [12], in assay [13], in [14], in assay [15], in assay [16] and in [17] was greater than 100 µM in each case.

Turning to `CCC(=O)NC(NNS(=O)(=O)c1ccc(C)cc1)(C(F)(F)F)C(F)(F)F`, the TGI in [18], in assay [2], in [3], in [4], in assay [19] and in assay [5] was greater than 100 µM throughout. Also, the TGI in [6] was greater than 100 µM; in assay [7], greater than 100 µM; in assay [8], 91.8 µM; in [9], greater than 100 µM; in [10], greater than 100 µM; in assay [11], greater than 100 µM. In addition, the TGI in assay [13], in assay [14], in [15], in assay [16] and in assay [17] was greater than 100 µM in each case.

As for `NC(=S)N/N=C1\CCc2ccccc2C1`, the TGI in assay [1], in assay [18], in assay [2], in assay [3], in assay [4] and in assay [6] was greater than 100 µM in each case. Besides, the TGI in assay [7], in [8], in assay [9], in assay [10], in assay [11] and in assay [12] was greater than 100 µM each time. Further, the TGI in assay [13], in assay [14], in assay [15], in assay [16] and in assay [17] was greater than 100 µM each time.

In the case of `Cc1ccccc1-n1c(=O)nc2n(-c3ccc(C(C)(C)C)cc3)c3ccccc3cc-2c1=O`, the TGI in assay [1] is 92.5 µM; in [18], 95.1 µM; in assay [2], 39.7 µM; in [3], 55.1 µM; in [4], 52.9 µM; in assay [19] it was 34.8 µM. For the same compound, the TGI in assay [5] is 28.5 µM; in assay [6], 69.9 µM; in assay [7], greater than 100 µM; in assay [8], 69.6 µM; in assay [9], 42.9 µM; in [10], 37.1 µM. For the same compound, the TGI in assay [11] was 54.4 µM; in [12], 38.1 µM; in [14] it was 41 µM; in assay [15], 32.8 µM; in assay [16] it was 32.4 µM; in assay [17], 50.1 µM.

For the compound `C=C(Cl)C(Cl)(CBr)CCCC(C)C` (configuration not stated), the TGI was greater than 100 µM in [1]; 39.2 µM in assay [18]; 27 µM in assay [2]; greater than 100 µM in assay [3]; greater than 27.3 µM in assay [4]; greater than 100 µM in assay [5]. Further, the TGI in assay [6] is 26.4 µM; in assay [7], greater than 41.4 µM; in assay [8], greater than 100 µM; in [9] it was greater than 69.5 µM; in assay [10], 32.2 µM; in [11], 47.4 µM. The TGI in [12] is greater than 100 µM; in [13] it was greater than 100 µM; in assay [14], greater than 100 µM; in assay [15], greater than 85.4 µM; in assay [16], greater than 100 µM; in assay [17], 31.7 µM.

For `COP(=O)(OC)[C@@](O)(c1ccccc1)[C@@H](O)[C@@H](O)c1ccccc1`, the TGI in assay [1], in assay [18], in assay [19], in [5], in [6] and in [7] was greater than 100 µM each time. Moreover, the TGI in [8], in assay [9], in assay [10], in [11], in assay [12] and in assay [13] was greater than 100 µM in each case. Besides, the TGI in assay [14], in assay [15], in assay [16] and in [17] was greater than 100 µM throughout.

Turning to `CCOC1OC(CO[Si](C)(C)C(C)(C)C)C(O)CC1n1ccc(=O)[nH]c1=O` (configuration not stated), the TGI in assay [1] is greater than 100 µM; in assay [18], greater than 100 µM; in assay [3], 69.1 µM; in assay [4], greater than 100 µM; in [19] it was greater than 100 µM; in assay [5], greater than 100 µM. Further, the TGI in assay [6], in assay [7], in [8], in [9], in assay [10] and in assay [11] was greater than 100 µM in each case. Besides, the TGI in assay [12], in assay [14], in assay [15], in assay [16] and in assay [17] was greater than 100 µM each time.

Regarding `COc1ccccc1OC/C(N=Cc1cccnc1)=N/NC(=O)c1ccncc1`, the TGI in assay [1], in assay [2], in assay [3], in assay [4], in [19] and in assay [6] was greater than 100 µM each time. The TGI in [7], in assay [8], in assay [9], in assay [10], in assay [11] and in assay [13] was greater than 100 µM each time. Also, the TGI in assay [14], in [15], in assay [16] and in assay [17] was greater than 100 µM in each case.

For the compound `N#Cc1ccccc1NC(=O)C(O)C(O)C(O)C(O)C=O` (configuration not stated), the TGI in assay [1], in assay [18], in assay [3], in assay [19], in [5] and in assay [6] was greater than 100 µM each time. For the same compound, the TGI in assay [7], in assay [8], in assay [9], in assay [10], in assay [11] and in assay [12] was greater than 100 µM throughout. Further, the TGI in [13], in [14], in assay [15], in assay [16] and in [17] was greater than 100 µM each time.

Turning to `CC(C)(C)c1cc(C(C)(C)C)c(SSc2c(C(C)(C)C)cc(C(C)(C)C)c(O)c2O)c(O)c1O`, the TGI in assay [1] was found to be 15.5 µM; in assay [18], 18.6 µM; in assay [3], 10.4 µM; in assay [4], 32.1 µM; in assay [19], 28.4 µM; in [5], 24 µM. For the same compound, the TGI in assay [6] was found to be 19.2 µM; in [7] it was 27.2 µM; in assay [8] it was 28.3 µM; in [9], 28 µM; in [10] it was 21.7 µM; in [11], 25.5 µM. Besides, the TGI was 25.3 µM in [12]; 18.8 µM in [14]; 20.7 µM in assay [15]; 25.2 µM in [16]; 31.9 µM in assay [17].

In the case of `CC(C)(CO)CNc1nc(N)nc(Cl)c1C=O`, the TGI in [1] was greater than 100 µM; in assay [18], greater than 100 µM; in [2] it was 46.1 µM; in [3] it was 59 µM; in [4], greater than 100 µM; in assay [19], 39.2 µM. Also, the TGI in assay [5], in [6], in assay [7], in [8], in assay [9] and in assay [10] was greater than 100 µM each time. In addition, the TGI is 55.3 µM in [12], 32.6 µM in assay [14], 45 µM in assay [15] and 77.3 µM in assay [17].

As for `COC(=O)/C=C1/OC(c2ccccc2)=C(Br)C1=O`, the TGI in [1], in [18], in assay [2], in assay [3], in assay [4] and in assay [5] was greater than 100 µM each time. Besides, the TGI was 81.6 µM in [6]; greater than 100 µM in assay [7]; 53.4 µM in assay [8]; 66.3 µM in [9]; greater than 100 µM in assay [10]; greater than 100 µM in [11]. For the same compound, the TGI in assay [12] was 89.2 µM; in [13], greater than 100 µM; in [14], greater than 100 µM; in assay [15] it was greater than 100 µM; in [16] it was greater than 100 µM; in assay [17] it was greater than 100 µM.

Source of the values: PubChem BioAssay (NCI).
